# Patent publication EP4005565A1 (priority 2020, dated 2022)
# Structures can show the parent of a compound that is named as a salt. Where two headings read alike, the source gives them in different places.
# How the values were obtained:
# [1] = tested on: SARS-CoV-2 (viral strain INMI1); assay: Antiviral activity assay with nucleoprotein readout (ELISA) in infected Vero E6 cells; type: cell-based; settings: Severe acute respiratory syndrome coronavirus 2, Vero C1008, 72 h, read-out: IC50, SARS-CoV-2 replication (virus nucleoprotein in % of infected untreated control)
# Protocol: The cell line is routinely maintained in DMEM supplemented with 1% glutamine, 1% penicillin/streptomycin and 10% fetal bovine serum and can be infected with SARS-CoV-2 (Ogando et al., 2020).
# Exponentially growing Vero E6 cells were seeded into a 96-well plate at their optimal density in complete medium. […] Drug dilutions were performed in culture medium. Replicates for each concentration point were examined. At the end of the incubation period, antiviral activity was examined through both ELISA (Sino Biological, quantifying SARS-CoV-2 nucleoprotein) as well as a cytoprotection assay (toxicity effect examined through an inverted microscope). An inhibitory concentration 50% (IC50) value was calculated through interpolation of the dose-response curves generated.
# The nucleoprotein was quantified by ELISA. Results are means ± SD of 2-4 experiments.
# SARS-CoV-2 = assay: Treatment of a SARS-CoV-2 positive patient with nebulized amantadine hemisulfate (Example 2); type: in vivo; settings: 0.4mg/ml inhaled every 2 h for 30min 6 times per day, 7 days
# Excerpt: A patient who had contact 2 days ago with a colleague who turned out to be SARS-CoV-2 positive the day after the meeting, consults their primary care physician. […] The RT-PCR test for SARS-CoV-2 of a nasal swab is also positive; HR is 78/min, BP is 120/80mmHg, BR is 15/min, peripheral O2 saturation is 97%, no further health issues are diagnosed. The patient is diagnosed with Covid-19 and isolated in home quarantine with daily doctor calls to evaluate their health status. […] The treatment is continued for 7 days. […] They recover within 14 days after treatment start.
# influenza A [2] = settings: inhalation, cited from earlier work
# [3] = target: binding of the viral spike protein to ACE2 (UniProt P0DTC2+Q9BYF1); settings: Fink et al. in prep; cited from earlier work
# [4] = cited from earlier work
# [5] = cited from earlier work; remark: listed apart in the source
# [6] = 7 volunteers and 3 influenza patients; 1.5%, up to 9h, 2x6h, 10-11h in 3d (Knight et al., 1979); cited from earlier work
# influenza A [7] = settings: 20 influenza A patients; inhalative 1%, 20mg/d, 3x20min, 4d (Hayden et al., 1980); cited from earlier work
# influenza A [8] = settings: inhaled at 6mg/kg/d (Fenton et al., 1977); cited from earlier work
# lysosomal uptake = settings: at 10µM (Smieszek et al., 2020); cited from earlier work
# binding of the viral spike protein to ACE2, sequence (Q9BYF1 18-805, one chain of several): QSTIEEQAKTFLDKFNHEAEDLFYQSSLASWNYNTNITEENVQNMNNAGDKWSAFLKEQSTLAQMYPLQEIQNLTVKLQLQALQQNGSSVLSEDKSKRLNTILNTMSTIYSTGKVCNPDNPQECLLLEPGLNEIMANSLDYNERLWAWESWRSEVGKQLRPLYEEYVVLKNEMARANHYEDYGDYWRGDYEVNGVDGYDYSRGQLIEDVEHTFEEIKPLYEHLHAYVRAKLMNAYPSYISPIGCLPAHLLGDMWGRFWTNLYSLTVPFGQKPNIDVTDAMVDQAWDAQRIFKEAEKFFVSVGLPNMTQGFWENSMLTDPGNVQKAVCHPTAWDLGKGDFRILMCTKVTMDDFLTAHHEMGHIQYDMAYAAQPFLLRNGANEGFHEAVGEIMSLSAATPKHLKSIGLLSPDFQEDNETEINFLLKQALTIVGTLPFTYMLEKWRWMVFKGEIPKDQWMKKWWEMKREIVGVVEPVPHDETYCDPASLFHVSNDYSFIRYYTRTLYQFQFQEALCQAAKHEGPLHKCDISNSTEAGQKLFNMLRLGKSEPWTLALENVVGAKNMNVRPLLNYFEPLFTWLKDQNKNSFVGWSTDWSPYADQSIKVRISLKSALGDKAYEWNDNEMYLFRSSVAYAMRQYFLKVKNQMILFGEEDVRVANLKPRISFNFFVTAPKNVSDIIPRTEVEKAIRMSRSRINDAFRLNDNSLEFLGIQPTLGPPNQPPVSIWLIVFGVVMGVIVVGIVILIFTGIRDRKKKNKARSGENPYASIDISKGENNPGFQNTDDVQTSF
molecule,measurement,setting,value
NC12CC3CC(CC(C3)C1)C2 [amantadine hydrochloride],IC50,[1],88 µM
amantadine hemisulfate,breathing problems during treatment,SARS-CoV-2,does not suffer from breathing problems
same,fever during treatment,SARS-CoV-2,transiently minor fever
same,time to recovery after treatment start,SARS-CoV-2,≤ 14 days
"NC12CC3CC(CC(C3)C1)C2 [amantadine, 1-Adamantylamine]",virus load,"influenza A [2]; 40 mg/d retained dose (Wilson et al., 1980)",reduced virus load
same,effect on survival,"influenza A [2]; 22h/day, 4mg/d retained dose (Walker et al., 1976)",positive effect on survival
same,Interference with the binding of the viral spike protein to ACE2 on target cells,[3],can be ruled out
same,serum concentrations in intoxication case,"[4]; human, in vivo",15.9 µM
same,plasma concentration at which aggressive behaviour was observed,"[4]; patients, plasma",5.5 to 6.6 µM
same,plasma concentration at which depression and confusion were observed,"[4]; patients, plasma",19.9 µM
same,plasma concentration at which seizures were observed,"[4]; patients, plasma",13.2 µM
same,plasma concentration after inhalative administration,"[5]; healthy human volunteers, inhalation (Hayden et al., 1979)",0.13 µM
same,plasma concentrations,"[5]; patients receiving regularly 600 mg orally per day (Brenner et al., 1989)",up to 14.6 µM
same,safety of inhalative administration,[6],safe and irritation-free
same,symptoms,influenza A [7],improved symptoms
same,virus load,influenza A [7],reduced virus load
same,virus load,influenza A [8],reduced virus load
same,reduced lysosomal uptake,lysosomal uptake,50%
